# Results reported in publication PMC2330087, “Mechanistic Insights into a Novel Exporter-Importer System of Mycobacterium tuberculosis Unravel Its Role in Trafficking of Iron” (PLoS ONE, 2008).
# Target: T1, rIrtA (Rv1348) in LP-48 liposomes (Mycobacterium tuberculosis, UniProt P9WQJ9)
# T1 construct: gene irtA
# T1 sequence (P9WQJ9 whole entry): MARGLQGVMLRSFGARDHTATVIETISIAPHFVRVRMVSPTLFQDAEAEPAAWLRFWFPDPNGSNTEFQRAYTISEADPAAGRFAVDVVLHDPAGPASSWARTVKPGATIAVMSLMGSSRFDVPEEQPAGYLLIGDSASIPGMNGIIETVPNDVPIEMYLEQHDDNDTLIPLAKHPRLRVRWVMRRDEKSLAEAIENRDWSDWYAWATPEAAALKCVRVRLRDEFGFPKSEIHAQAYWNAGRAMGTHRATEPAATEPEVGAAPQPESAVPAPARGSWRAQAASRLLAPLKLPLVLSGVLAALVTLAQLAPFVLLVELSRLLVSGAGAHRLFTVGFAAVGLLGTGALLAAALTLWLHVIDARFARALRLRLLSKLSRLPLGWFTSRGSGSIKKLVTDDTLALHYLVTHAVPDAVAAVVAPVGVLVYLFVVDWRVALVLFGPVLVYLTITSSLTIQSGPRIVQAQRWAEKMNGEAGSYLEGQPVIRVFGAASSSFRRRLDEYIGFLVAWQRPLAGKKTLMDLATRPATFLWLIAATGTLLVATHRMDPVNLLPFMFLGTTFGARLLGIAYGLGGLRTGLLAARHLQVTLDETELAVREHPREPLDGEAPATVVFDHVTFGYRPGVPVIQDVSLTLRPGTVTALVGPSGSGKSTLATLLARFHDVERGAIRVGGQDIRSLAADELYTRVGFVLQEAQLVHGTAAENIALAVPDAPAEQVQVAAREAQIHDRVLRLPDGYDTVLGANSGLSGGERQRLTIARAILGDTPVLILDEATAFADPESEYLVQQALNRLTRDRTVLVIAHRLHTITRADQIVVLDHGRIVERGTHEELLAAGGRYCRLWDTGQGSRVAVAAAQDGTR
structure (smiles),measurement,value
Nc1ncnc2c1ncn2[C@@H]1O[C@H](COP(=O)(O)OP(=O)(O)OP(=O)(O)O)[C@@H](O)[C@H]1O [ATP],inorganic phosphate release in proteoliposomes,the ATP hydrolysis by rIrtA was not seen in the absence of cMyco
